# Values of other authors as cited in patent US11439593B2, “Composition for treating onychomycosis” (NCP NewCare Products GmbH, priority 2017, dated 2022).
# Read-outs that look alike come from different tables or passages of the source.
stability in acidic environment (pH of about 3),stability in acidic environment (pH of about 5),SMILES
stable,,CN(C/C=C/C#CC(C)(C)C)Cc1cccc2ccccc12 [terbinafine]
,stable,Clc1ccccc1C(c1ccccc1)(c1ccccc1)n1ccnc1 [clotrimazole]
stable,,Cc1cc(C2CCCCC2)n(O)c(=O)c1 [ciclopirox]
,stable,c1ccc(-c2ccc(C(c3ccccc3)n3ccnc3)cc2)cc1 (centres unmarked) [bifonazole]
stable,,Clc1ccc(COC(Cn2ccnc2)c2ccc(Cl)cc2Cl)c(Cl)c1 (centres unmarked) [miconazole]
